ChEMBL document CHEMBL1201862, “PubChem BioAssay data set” (2004)
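Where inhibition never reached the appropriate level, the endpoint shown equals the highest concentration tested. Otherwise, values were interpolated linearly from a five-concentration, 48-hour dose response in 96-well plates. GI50 marks 50% less growth.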 Calls of active or inactive are those of the source. Rule as the data show it: active = GI50 up to about 1.1 µM and inactive = higher.

What was measured:
Assay in all cases: NCI-60 cell line screen, 48 h
NCI-H460 = system: NCI-H460
HOP-62 = system: HOP-62
T47D = system: T47D
K562 = system: K562
Hs-578T = system: Hs-578T
OVCAR-8 = system: OVCAR-8
A549 = system: A549
UO-31 = system: UO-31
TK-10 = system: TK-10
KM12 = system: KM12
SNB-75 = system: SNB-75
PC-3 = system: PC-3
NCI-H226 = system: NCI-H226
MDA-MB-231 = system: MDA-MB-231
MDA-MB-435 = system: MDA-MB-435
SW-620 = system: SW-620
A498 = system: A498
OVCAR-3 = system: OVCAR-3
HCC 2998 = system: HCC 2998
SR = system: SR
U-251 = system: U-251
CAKI-1 = system: CAKI-1
SK-MEL-5 = system: SK-MEL-5
NCI/ADR-RES = system: NCI/ADR-RES
HCT-116 = system: HCT-116
SK-OV-3 = system: SK-OV-3
NCI-H522 = system: NCI-H522
SF-295 = system: SF-295
SNB-19 = system: SNB-19
SN12C = system: SN12C
SK-MEL-28 = system: SK-MEL-28
SF-268 = system: SF-268
OVCAR-4 = system: OVCAR-4
M14 = system: M14
786-0 = system: 786-0
OVCAR-5 = system: OVCAR-5
HCT-15 = system: HCT-15
UACC-257 = system: UACC-257
ACHN = system: ACHN
COLO 205 = system: COLO 205
LOX IMVI = system: LOX IMVI
HT-29 = system: HT-29
MOLT-4 = system: MOLT-4
SK-MEL-2 = system: SK-MEL-2
UACC-62 = system: UACC-62
NCI-H23 = system: NCI-H23
MDA-N = system: MDA-N
CCRF-CEM = system: CCRF-CEM
DU-145 = system: DU-145
EKVX = system: EKVX
SF-539 = system: SF-539
MCF7 = system: MCF7
HOP-92 = system: HOP-92
IGROV-1 = system: IGROV-1
HL-60 = system: HL-60
Malme-3M = system: Malme-3M
RXF 393 = system: RXF 393

## C=CC[C@@H]1C(=O)[C@@]2(O[Si](C(C)C)(C(C)C)C(C)C)CC[C@@H]1C[C@H]2NC(=O)OCC(Cl)(Cl)Cl
NCI-H460
  GI50: 35.5 µM (inactive)
HOP-62
  GI50: > 100 µM (inactive)
T47D
  GI50: > 100 µM (inactive)
K562
  GI50: 61.8 µM (inactive)
Hs-578T
  GI50: > 100 µM (inactive)
OVCAR-8
  GI50: > 100 µM (inactive)
A549
  GI50: > 100 µM (inactive)
UO-31
  GI50: 56.5 µM (inactive)
TK-10
  GI50: > 100 µM (inactive)
KM12
  GI50: > 100 µM (inactive)
SNB-75
  GI50: > 100 µM (inactive)
PC-3
  GI50: 32.9 µM (inactive)
NCI-H226
  GI50: > 100 µM (inactive)
MDA-MB-231
  GI50: > 10 µM (inactive)
MDA-MB-435
  GI50: > 100 µM (inactive)
SW-620
  GI50: > 100 µM (inactive)
A498
  GI50: > 100 µM (inactive)
OVCAR-3
  GI50: 90.8 µM (inactive)
HCC 2998
  GI50: 43.2 µM (inactive)
SR
  GI50: 35.4 µM (inactive)
U-251
  GI50: > 100 µM (inactive)
CAKI-1
  GI50: 59.2 µM (inactive)
SK-MEL-5
  GI50: > 100 µM (inactive)
NCI/ADR-RES
  GI50: > 100 µM (inactive)
HCT-116
  GI50: 27.9 µM (inactive)
SK-OV-3
  GI50: > 100 µM (inactive)
NCI-H522
  GI50: < 0.01 µM (active)
SF-295
  GI50: 5.35 µM (inactive)
SNB-19
  GI50: > 100 µM (inactive)
SN12C
  GI50: 45.3 µM (inactive)
SK-MEL-28
  GI50: > 100 µM (inactive)
SF-268
  GI50: > 100 µM (inactive)
OVCAR-4
  GI50: > 100 µM (inactive)
M14
  GI50: > 100 µM (inactive)
786-0
  GI50: 77.1 µM (inactive)
OVCAR-5
  GI50: > 100 µM (inactive)
HCT-15
  GI50: 91.6 µM
UACC-257
  GI50: 43.8 µM (inactive)
ACHN
  GI50: 73.8 µM (inactive)
COLO 205
  GI50: > 100 µM (inactive)
LOX IMVI
  GI50: 41.5 µM (inactive)
HT-29
  GI50: > 100 µM (inactive)
MOLT-4
  GI50: > 100 µM (inactive)
SK-MEL-2
  GI50: 60 µM (inactive)
UACC-62
  GI50: > 100 µM (inactive)
NCI-H23
  GI50: > 100 µM (inactive)
MDA-N
  GI50: 77.1 µM (inactive)
CCRF-CEM
  GI50: 60 µM (inactive)
DU-145
  GI50: > 100 µM (inactive)

## COc1nc2ccc(COc3ccc(C(=O)O)cc3)cc2nc1OC
NCI-H460
  GI50: > 100 µM (inactive)
HOP-62
  GI50: > 100 µM (inactive)
T47D
  GI50: > 100 µM (inactive)
K562
  GI50: 67.1 µM (inactive)
OVCAR-8
  GI50: 36.4 µM (inactive)
A549
  GI50: > 100 µM (inactive)
UO-31
  GI50: > 100 µM (inactive)
KM12
  GI50: > 100 µM (inactive)
SNB-75
  GI50: 11.7 µM (inactive)
EKVX
  GI50: > 100 µM (inactive)
PC-3
  GI50: 71.4 µM (inactive)
NCI-H226
  GI50: 78 µM (inactive)
MDA-MB-231
  GI50: > 100 µM (inactive)
MDA-MB-435
  GI50: 33.7 µM (inactive)
SW-620
  GI50: 83.8 µM (inactive)
A498
  GI50: 95.7 µM (inactive)
OVCAR-3
  GI50: > 100 µM (inactive)
HCC 2998
  GI50: 58.2 µM (inactive)
SR
  GI50: 41.4 µM (inactive)
U-251
  GI50: 87.1 µM (inactive)
CAKI-1
  GI50: 93.3 µM (inactive)
SK-MEL-5
  GI50: > 100 µM (inactive)
SF-539
  GI50: 45.5 µM (inactive)
NCI/ADR-RES
  GI50: 88.1 µM (inactive)
HCT-116
  GI50: 39.9 µM (inactive)
SK-OV-3
  GI50: > 100 µM (inactive)
NCI-H522
  GI50: > 100 µM (inactive)
MCF7
  GI50: > 100 µM (inactive)
SF-295
  GI50: 32.9 µM (inactive)
SNB-19
  GI50: > 100 µM (inactive)
HOP-92
  GI50: 47.5 µM (inactive)
SN12C
  GI50: > 100 µM (inactive)
SK-MEL-28
  GI50: 66.4 µM (inactive)
IGROV-1
  GI50: > 100 µM (inactive)
HL-60
  GI50: 53.8 µM (inactive)
SF-268
  GI50: 82 µM (inactive)
OVCAR-4
  GI50: > 100 µM (inactive)
M14
  GI50: 66.1 µM (inactive)
786-0
  GI50: > 100 µM (inactive)
OVCAR-5
  GI50: > 100 µM (inactive)
HCT-15
  GI50: 65.6 µM
UACC-257
  GI50: > 100 µM (inactive)
ACHN
  GI50: 80.4 µM (inactive)
COLO 205
  GI50: > 100 µM (inactive)
LOX IMVI
  GI50: 54.1 µM (inactive)
Malme-3M
  GI50: > 100 µM (inactive)
HT-29
  GI50: > 100 µM (inactive)
MOLT-4
  GI50: > 100 µM (inactive)
SK-MEL-2
  GI50: > 100 µM (inactive)
UACC-62
  GI50: 33.6 µM (inactive)
NCI-H23
  GI50: > 100 µM (inactive)
MDA-N
  GI50: 38.2 µM (inactive)
CCRF-CEM
  GI50: 36.6 µM (inactive)
DU-145
  GI50: > 100 µM (inactive)

## CC(CN(C)C)Nc1c2ccccc2nc2cccc([N+](=O)[O-])c12 (stereo not drawn)
NCI-H522
  GI50: 0.0268 µM (active)
HL-60
  GI50: 0.203 µM (active)
MDA-N
  GI50: 0.23 µM (active)

## COC(=O)C1c2cc3c(c(O)c2CCC1(C)O)C(=O)c1c(O)cc2c(c1C3=O)OC1OC2(C)C(O)C(N(C)C)C1O (stereo not drawn)
NCI-H460
  GI50: 0.452 µM (active)
HOP-62
  GI50: 0.254 µM (active)
T47D
  GI50: 0.274 µM (active)
K562
  GI50: 0.223 µM (active)
Hs-578T
  GI50: 0.338 µM (active)
OVCAR-8
  GI50: 0.101 µM (active)
A549
  GI50: 0.186 µM (active)
UO-31
  GI50: 1.4 µM (inactive)
TK-10
  GI50: 0.369 µM (active)
KM12
  GI50: 0.345 µM (active)
SNB-75
  GI50: 0.198 µM (active)
EKVX
  GI50: 0.146 µM (active)
PC-3
  GI50: 0.474 µM (active)
NCI-H226
  GI50: 0.0112 µM (active)
MDA-MB-231
  GI50: 0.207 µM (active)
MDA-MB-435
  GI50: 1.01 µM (active)
SW-620
  GI50: 0.14 µM (active)
OVCAR-3
  GI50: 0.0991 µM (active)
SR
  GI50: < 0.01 µM (active)
U-251
  GI50: 0.436 µM (active)
CAKI-1
  GI50: < 0.01 µM (active)
SK-MEL-5
  GI50: 0.385 µM (active)
SF-539
  GI50: 1.4 µM (inactive)
NCI/ADR-RES
  GI50: 1.61 µM (inactive)
HCT-116
  GI50: 0.245 µM (active)
SK-OV-3
  GI50: 1.91 µM (inactive)
NCI-H522
  GI50: 1.1 µM (active)
MCF7
  GI50: 0.8 µM (active)
SF-295
  GI50: 0.382 µM (active)
SNB-19
  GI50: 0.221 µM (active)
SN12C
  GI50: 0.543 µM (active)
SK-MEL-28
  GI50: 3.15 µM (inactive)
IGROV-1
  GI50: 1.02 µM (active)
HL-60
  GI50: 1.36 µM (inactive)
SF-268
  GI50: 0.906 µM (active)
OVCAR-4
  GI50: 0.158 µM (active)
M14
  GI50: 1.75 µM (inactive)
786-0
  GI50: 1.03 µM (active)
OVCAR-5
  GI50: 0.263 µM (active)
HCT-15
  GI50: 0.394 µM
RXF 393
  GI50: 0.205 µM (active)
UACC-257
  GI50: 0.108 µM (active)
ACHN
  GI50: 0.172 µM (active)
COLO 205
  GI50: 0.36 µM (active)
LOX IMVI
  GI50: 0.226 µM (active)
Malme-3M
  GI50: 0.162 µM (active)
HT-29
  GI50: 0.205 µM (active)
MOLT-4
  GI50: 0.121 µM (active)
SK-MEL-2
  GI50: 4.76 µM (inactive)
UACC-62
  GI50: 0.421 µM (active)
NCI-H23
  GI50: 0.562 µM (active)
DU-145
  GI50: 0.139 µM (active)
